Measurements reported in patent US5874426A, “Cyclic amine derivatives of substituted quinoxaline 2,3-diones as glutamate receptor antagonists” (Warner-Lambert Company, priority 1995, dated 1999).

Key:
AMPA receptors = assay: AMPA receptor binding affinity (Honoré et al.); settings: Table 1
[1] = molecular target: kainate site (non-NMDA receptor); assay: kainate site (non-NMDA receptor) binding affinity (London and Coyle); settings: Table 1
CF-1 strain mice = assay: maximal electroshock assay in CF-1 strain mice, corneal electrodes; format: in vivo; settings: ten mice; IV; 30 seconds; 0.5 min
Description: The graph is the […] of mice protected versus the time in minutes.

Molecule | IC50 (AMPA receptors) [nM] | IC50 KA [1] [nM] | ED50 maximal electroshock dose-response (CF-1 strain mice) [mg/kg]
Cc1c([N+](=O)[O-])cc2[nH]c(=O)c(=O)[nH]c2c1CN1C(C)CCC1C (stereo not drawn) [5-(2,5-Dimethyl-pyrrolidin-1-ylmethyl)-6-methyl-7-nitro-1,4-dihydroquinoxaline-2,3-dione] | 740 | 2840 | 
Cc1c([N+](=O)[O-])cc2[nH]c(=O)c(=O)[nH]c2c1CN1CCCC1C (stereo not drawn) [6-Methyl-5-(2-methyl-pyrrolidin-1-ylmethyl)-7-nitro-1,4-dihydroquinoxaline-2,3-dione] | 370 | 6110 | 
Cc1c([N+](=O)[O-])cc2[nH]c(=O)c(=O)[nH]c2c1CN1CCCCCC1 [5-Azepan-1-ylmethyl-6-methyl-7-nitro-1,4-dihydroqinoxaline-2,3-dione] | 899 | 3695 | 
Cc1c([N+](=O)[O-])cc2[nH]c(=O)c(=O)[nH]c2c1CN1CCC2(CCCCC2)CC1 [5-(3-Azaspiro [5.5]undec-3-ylmethyl)-6-methyl-7-nitro-1,4-dihydroquinoxaline-2,3-dione] | 486 | 6540 | 
1,4,7,8,9,10-hexahydro-7-methyl-6-nitro-pyrido[3,4-f]quinoxaline-2,3-dione [PNQX] |  |  | 0.5
Cc1c([N+](=O)[O-])cc2[nH]c(=O)c(=O)[nH]c2c1CN1CCC(C)CC1 [6-Methyl-5-(4-methyl-piperidin-1-ylmethyl)-7-nitro-1,4-dihydroquinoxaline-2,3-dione] | 420 | 9950 | 
Cc1c([N+](=O)[O-])cc2[nH]c(=O)c(=O)[nH]c2c1CN1CCOCC1 [6-Methyl-5-morpholin-4-ylmethyl-7-nitro-1,4-dihydroquinoxaline-2,3-dione] | 572 | 9083 | 
Cc1c([N+](=O)[O-])cc2[nH]c(=O)c(=O)[nH]c2c1CN1CCCCC1 [6-Methyl-7-nitro-5-piperidin-1-ylmethyl-1,4-dihydroquinoxaline-2,3-dione] | 290 | 4110 | 

The remaining molecules from weak to strong by IC50 (AMPA receptors), led by results:

IC50 (AMPA receptors) [nM] | IC50 KA [1] [nM] | Molecule | ED50 maximal electroshock dose-response (CF-1 strain mice) [mg/kg]
2470 | 13200 | Cc1c([N+](=O)[O-])cc2[nH]c(=O)c(=O)[nH]c2c1CN1CCN(C)CC1 [6-Methyl-5-(4-methyl-piperazin-1-ylmethyl)-7-nitro-1,4-dihydroquinoxaline-2,3-dione] | 
490 | 8280 | Cc1c([N+](=O)[O-])cc2[nH]c(=O)c(=O)[nH]c2c1CN1CCCCC1C (stereo not drawn) [6-Methyl-5-(2-methyl-piperidin-1-ylmethyl)-7-nitro-1,4-dihydroquinoxaline-2,3-dione] | 
220 | 4520 | Cc1c([N+](=O)[O-])cc2[nH]c(=O)c(=O)[nH]c2c1CN1CCCC1 [6-Methyl-5-pyrrolidin-1-ylmethyl-7-nitro-1,4-dihydroquinoxaline-2,3-dione] | 
